Source: patent publication US11504434B2, “Compositions and methods for targeted delivery of therapeutic and/or diagnostic agents” (THE PENN STATE RESEARCH FOUNDATION, priority 2016, dated 2022)

Tests used:
THP-1 cells = assay: CCK-8 cell viability, THP-1; assay type: cell-based; conditions: free drug, up to 100 μg/ml, 24 hrs
Experimental: (§1) Pharmacological Studies. First, free PLX4032 toxicity and selectivity were confirmed by adding PLX4032 solutions at different concentrations into 96 well plates with THP-1, 1205Lu and WM35 cells separately (cell seeding density=5,000 cells/well). After 24 hrs incubation, the cells were washed with PBS twice and supplemented with 10 μl CCK-8 in 100 μl RPM-1640 medium in each well. After 2 hrs incubation, the absorbance at 450 nm of each well was measured by a micro-plate reader (TECAN infinite M200 PRO) and converted to the cell viability by normalized to control (tissue culture plates). Next, MTP-BPLP-PLA nanoparticles with and without PLX4032 loaded were dispersed in RPMI-1640 medium in various concentrations, followed by incubation with THP-1, 1205lu and WM35 cells (2,000 cells/well) separately in same conditions for 7 days. At last, MTP-BPLP-PLA-PLX4032 loaded THP-1 cells and pristine THP-1 cells were seeded with 1205lu or WM35 cells (2,000 cells/well) together with different ratios for 7 days, respectively. The cell viabilities were tested by CCK-8 assays as well.

1205Lu cells = assay: CCK-8 cell viability, 1205Lu; assay type: cell-based, human
Experimental: as §1

WM35 cells = assay: CCK-8 cell viability, WM35; assay type: cell-based, human
Experimental: as §1

[1] = PLX4032 concentration higher than 5 μg/ml, 24 hrs

CCCS(=O)(=O)Nc1ccc(F)c(C(=O)c2c[nH]c3ncc(-c4ccc(Cl)cc4)cc23)c1F [PLX4032]
THP-1 cell viability reduction (THP-1 cells): no significant viability reduction
free PLX4032 toxicity to 1205Lu (1205Lu cells; 50 ng/ml, 24 hrs incubation): selectively killed
kill of melanomas (1205Lu) (1205Lu cells; [1]): ~100%
free PLX4032 toxicity to WM35 (WM35 cells; 50 ng/ml, 24 hrs incubation): selectively killed
kill of melanomas (WM35) (WM35 cells; [1]): ~100%
